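Values below derive from 48-hour exposures of cells grown in 96-well plates, with endpoints linearly interpolated between the two concentrations bracketing the appropriate inhibition level. GI50 is the concentration that inhibits growth by half. At the TGI there is no net growth.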
Assays:
Assay in all cases: DTP human tumour cell line panel, 48 h
786-0 renal = test system: 786-0 renal
A498 renal = test system: A498 renal
A549 NSCLC = test system: A549 NSCLC
ACHN renal = test system: ACHN renal
BT-549 breast = test system: BT-549 breast
CAKI-1 renal = test system: CAKI-1 renal
CCRF-CEM leukemia = test system: CCRF-CEM leukemia
COLO 205 colon = test system: COLO 205 colon
DU-145 prostate = test system: DU-145 prostate
EKVX NSCLC = test system: EKVX NSCLC
HCC-2998 colon = test system: HCC-2998 colon
HCT-116 colon = test system: HCT-116 colon
HCT-15 colon = test system: HCT-15 colon
HL-60(TB) leukemia = test system: HL-60(TB) leukemia
HOP-62 NSCLC = test system: HOP-62 NSCLC
HOP-92 NSCLC = test system: HOP-92 NSCLC
HS 578T breast = test system: HS 578T breast
HT29 colon = test system: HT29 colon
IGROV1 ovarian = test system: IGROV1 ovarian
K-562 leukemia = test system: K-562 leukemia
KM12 colon = test system: KM12 colon
LOX IMVI melanoma = test system: LOX IMVI melanoma
M14 melanoma = test system: M14 melanoma
MALME-3M melanoma = test system: MALME-3M melanoma
MCF7 breast = test system: MCF7 breast
MDA-MB-231 breast = test system: MDA-MB-231 breast
MDA-MB-435 = test system: MDA-MB-435
MOLT-4 leukemia = test system: MOLT-4 leukemia
NCI-H226 lung = test system: NCI-H226 lung
NCI-H23 lung = test system: NCI-H23 lung
NCI-H460 lung = test system: NCI-H460 lung
NCI-H522 lung = test system: NCI-H522 lung
NCI/ADR-RES ovarian = test system: NCI/ADR-RES ovarian
OVCAR-3 ovarian = test system: OVCAR-3 ovarian
OVCAR-5 ovarian = test system: OVCAR-5 ovarian
OVCAR-8 ovarian = test system: OVCAR-8 ovarian
PC-3 prostate = test system: PC-3 prostate
RPMI-8226 leukemia = test system: RPMI-8226 leukemia
RXF 393 renal = test system: RXF 393 renal
SF-268 CNS = test system: SF-268 CNS
SF-295 CNS = test system: SF-295 CNS
SF-539 CNS = test system: SF-539 CNS
SK-MEL-2 melanoma = test system: SK-MEL-2 melanoma
SK-MEL-28 melanoma = test system: SK-MEL-28 melanoma
SK-MEL-5 melanoma = test system: SK-MEL-5 melanoma
SK-OV-3 ovarian = test system: SK-OV-3 ovarian
SN12C renal = test system: SN12C renal
SNB-19 CNS = test system: SNB-19 CNS
SNB-75 CNS = test system: SNB-75 CNS
SR leukemia = test system: SR leukemia
SW-620 colon = test system: SW-620 colon
T-47D breast = test system: T-47D breast
U251 CNS = test system: U251 CNS
UACC-257 melanoma = test system: UACC-257 melanoma
UACC-62 melanoma = test system: UACC-62 melanoma
UO-31 renal = test system: UO-31 renal
OVCAR-4 ovarian = test system: OVCAR-4 ovarian
TK-10 renal = test system: TK-10 renal

## COC(=O)C1C(O)C(C)C(=O)C(C)/C=C\C=C(C)C(=O)Nc2c(C)c(OC(C)=O)c3c(c2O)C(=O)C(C)=C2OCOC(=C23)C(C)=CC(C)(O)C(O)C(C)C1O (stereo not given)
786-0 renal
  TGI: > 100000 nM
A498 renal
  TGI: 82200 nM
A549 NSCLC
  TGI: 61200 nM
ACHN renal
  TGI: > 100000 nM
BT-549 breast
  TGI: > 100000 nM
CAKI-1 renal
  TGI: > 100000 nM
CCRF-CEM leukemia
  TGI: 54200 nM
COLO 205 colon
  TGI: 49300 nM
DU-145 prostate
  TGI: 28200 nM
EKVX NSCLC
  TGI: > 100000 nM
HCC-2998 colon
  TGI: 53200 nM
HCT-116 colon
  TGI: 63900 nM
HCT-15 colon
  TGI: 45600 nM
HL-60(TB) leukemia
  TGI: 48400 nM
HOP-62 NSCLC
  TGI: > 100000 nM
HOP-92 NSCLC
  TGI: > 100000 nM
HS 578T breast
  TGI: > 100000 nM
HT29 colon
  TGI: 70000 nM
IGROV1 ovarian
  TGI: 58300 nM
K-562 leukemia
  TGI: 49400 nM
KM12 colon
  TGI: > 100000 nM
LOX IMVI melanoma
  TGI: 57800 nM
M14 melanoma
  TGI: 65900 nM
MALME-3M melanoma
  TGI: 49800 nM
MCF7 breast
  TGI: 90600 nM
MDA-MB-231 breast
  TGI: > 100000 nM
MDA-MB-435
  TGI: > 100000 nM
MOLT-4 leukemia
  TGI: > 100000 nM
NCI-H226 lung
  TGI: > 100000 nM
NCI-H23 lung
  TGI: 35000 nM
NCI-H460 lung
  TGI: 93500 nM
NCI-H522 lung
  TGI: > 100000 nM
NCI/ADR-RES ovarian
  TGI: > 100000 nM
OVCAR-3 ovarian
  TGI: > 100000 nM
OVCAR-5 ovarian
  TGI: > 100000 nM
OVCAR-8 ovarian
  TGI: > 100000 nM
PC-3 prostate
  TGI: > 100000 nM
RPMI-8226 leukemia
  TGI: > 100000 nM
RXF 393 renal
  TGI: > 100000 nM
SF-268 CNS
  TGI: > 100000 nM
SF-295 CNS
  TGI: > 100000 nM
SF-539 CNS
  TGI: > 100000 nM
SK-MEL-2 melanoma
  TGI: 86100 nM
SK-MEL-28 melanoma
  TGI: 60300 nM
SK-MEL-5 melanoma
  TGI: 27600 nM
SK-OV-3 ovarian
  TGI: > 100000 nM
SN12C renal
  TGI: > 100000 nM
SNB-19 CNS
  TGI: > 100000 nM
SNB-75 CNS
  TGI: > 100000 nM
SR leukemia
  TGI: 87000 nM
SW-620 colon
  TGI: > 100000 nM
T-47D breast
  TGI: > 100000 nM
U251 CNS
  TGI: > 100000 nM
UACC-257 melanoma
  TGI: 32900 nM
UACC-62 melanoma
  TGI: 44200 nM
UO-31 renal
  TGI: > 100000 nM

## COc1cccc2c1C(=O)c1c(O)c3c(c(O)c1C2=O)CC(O)(/C(C)=N/NC(=O)CCCCC(=O)N/N=C(\C)C1(O)Cc2c(O)c4c(c(O)c2C(OC2CC(N)C(O)C(C)O2)C1)C(=O)c1c(OC)cccc1C4=O)CC3OC1CC(N)C(O)C(C)O1 (stereo not given)
786-0 renal
  GI50: 185 nM
  TGI: 1940 nM
A498 renal
  GI50: 567 nM
  TGI: 1340 nM
ACHN renal
  GI50: 188 nM
  TGI: 1690 nM
BT-549 breast
  GI50: 511 nM
  TGI: 4350 nM
CAKI-1 renal
  GI50: 265 nM
  TGI: 3230 nM
CCRF-CEM leukemia
  GI50: 207 nM
  TGI: 18400 nM
COLO 205 colon
  GI50: 87.7 nM
  TGI: 440 nM
DU-145 prostate
  GI50: 163 nM
  TGI: 1930 nM
EKVX NSCLC
  GI50: 418 nM
  TGI: 21000 nM
HCC-2998 colon
  GI50: 318 nM
  TGI: 1140 nM
HCT-116 colon
  GI50: 116 nM
HCT-15 colon
  GI50: 2890 nM
  TGI: > 50000 nM
HL-60(TB) leukemia
  GI50: 159 nM
  TGI: 2380 nM
HOP-62 NSCLC
  GI50: 218 nM
  TGI: 1930 nM
HOP-92 NSCLC
  GI50: 137 nM
  TGI: 2450 nM
HS 578T breast
  GI50: 263 nM
  TGI: 2830 nM
HT29 colon
  GI50: 181 nM
  TGI: > 50000 nM
IGROV1 ovarian
  GI50: 906 nM
  TGI: > 21000 nM
K-562 leukemia
  GI50: 222 nM
  TGI: > 23300 nM
KM12 colon
  GI50: 361 nM
  TGI: 6120 nM
LOX IMVI melanoma
  GI50: 80.3 nM
M14 melanoma
  GI50: 225 nM
  TGI: 1320 nM
MALME-3M melanoma
  GI50: 146 nM
  TGI: 973 nM
MCF7 breast
  GI50: 45.9 nM
  TGI: > 50000 nM
MDA-MB-231 breast
  GI50: 749 nM
  TGI: > 50000 nM
MDA-MB-435
  GI50: 324 nM
  TGI: 2010 nM
MOLT-4 leukemia
  GI50: 60.5 nM
  TGI: 694 nM
NCI-H226 lung
  GI50: 159 nM
  TGI: 1230 nM
NCI-H23 lung
  GI50: 173 nM
  TGI: 1120 nM
NCI-H460 lung
  GI50: 45.6 nM
  TGI: 10900 nM
NCI-H522 lung
  GI50: 108 nM
  TGI: 811 nM
NCI/ADR-RES ovarian
  GI50: 17900 nM
  TGI: > 50000 nM
OVCAR-3 ovarian
  GI50: 200 nM
  TGI: 2750 nM
OVCAR-4 ovarian
  GI50: 401 nM
  TGI: 8430 nM
OVCAR-5 ovarian
  GI50: 862 nM
  TGI: > 50000 nM
OVCAR-8 ovarian
  GI50: 215 nM
  TGI: > 50000 nM
PC-3 prostate
  GI50: 597 nM
  TGI: 9180 nM
RPMI-8226 leukemia
  GI50: 139 nM
  TGI: 2630 nM
RXF 393 renal
  GI50: 209 nM
  TGI: 831 nM
SF-268 CNS
  GI50: 147 nM
  TGI: 4580 nM
SF-295 CNS
  GI50: 125 nM
  TGI: 689 nM
SF-539 CNS
  GI50: 121 nM
  TGI: 465 nM
SK-MEL-2 melanoma
  GI50: 585 nM
  TGI: 1790 nM
SK-MEL-28 melanoma
  GI50: 473 nM
  TGI: 1620 nM
SK-MEL-5 melanoma
  GI50: 97.4 nM
  TGI: 584 nM
SK-OV-3 ovarian
  GI50: 227 nM
SN12C renal
  GI50: 178 nM
  TGI: > 50000 nM
SNB-19 CNS
  GI50: 164 nM
  TGI: 1570 nM
SNB-75 CNS
  GI50: 118 nM
  TGI: 867 nM
SR leukemia
  GI50: 8.27 nM
  TGI: 36.5 nM
SW-620 colon
  GI50: 147 nM
  TGI: 33400 nM
T-47D breast
  GI50: 93.1 nM
  TGI: 2070 nM
TK-10 renal
  GI50: 716 nM
  TGI: > 14300 nM
U251 CNS
  GI50: 147 nM
  TGI: > 23700 nM
UACC-257 melanoma
  GI50: 554 nM
  TGI: 2370 nM
UO-31 renal
  GI50: 1340 nM
  TGI: > 22000 nM

— PubChem BioAssay (NCI)
